Measurements reported in ChEMBL document CHEMBL1147375, “Three New Bromotyrosine-Derived Metabolites of the Sponge Psammaplysilla purpurea” (J Nat Prod, 1993).
Values after ≈ are worked out from the molar mass of the structure shown. Active and inactive are the calls of the source. The rule behind the calls is not given here.

Legend:
Staphylococcus aureus = assay: Antibacterial activity against Staphylococcus aureus at 100 ug/disk; assay type: functional; conditions: read-out: IZ
Escherichia coli = assay: Antibacterial activity against Escherichia coli at 100 ug/disk; assay type: functional, organism-based
P388 = assay: Cytotoxicity against mouse P388 cells; assay type: functional, cell-based
A549 = assay: Cytotoxicity against human A549 cells; assay type: functional, cell-based
HT-29 = assay: Cytotoxicity against human HT-29 cells; assay type: functional, cell-based
KB = assay: Cytotoxicity against human KB cells; assay type: functional, cell-based
[1] = test system: Human immunodeficiency virus 1; assay: Antiviral activity against HIV1 Haitian RF at 1 ug/mL; assay type: functional, organism-based

Row | SMILES | zone of inhibition at 100 µg/disc (Staphylococcus aureus) | Activity (Escherichia coli) | IC50 (P388) | IC50 (A549) | IC50 (HT-29) | IC50 (KB) | Activity [1]
1 | COc1ccc(C/C(=N\O)C(=O)NCCc2cc(Br)c(OCCCN)c(Br)c2)cc1Br [APLYSAMINE 3] | 10 mm | inactive | 1 µg/mL (≈ 1.61 µM) | 2 µg/mL (≈ 3.21 µM) | 2 µg/mL (≈ 3.21 µM) | 5 µg/mL (≈ 8.04 µM) | inactive
2 | Br.COc1c(Br)cc(C/C(=N\O)C(=O)NCCc2cc(Br)c(OCCCN)c(Br)c2)cc1Br [APLYSAMINE 4] | 10 mm | inactive | 2.5 µg/mL | 2.5 µg/mL | 2.5 µg/mL | 5 µg/mL | inactive
3 | COc1ccc(C/C(=N\O)C(=O)NCCc2cc(Br)c(OCCCNC(=O)CCCCCCCCCCCC(C)C)c(Br)c2)cc1Br [APLYSAMINE 5] |  |  | 10 µg/mL (≈ 11.8 µM) | 2.5 µg/mL (≈ 2.95 µM) | 2.5 µg/mL (≈ 2.95 µM) | 2 µg/mL (≈ 2.36 µM) | inactive
